According to US8147837B2, “Use of mycobacterial mannosylated lipoglycans peptide mimotopes for treating inflammation” (priority 2004, dated 2012):
Ends that are not written are not given here.

Tests used:
[1] = system: IgG antibodies in sera of Mtb-infected mice; format: binding, BALB/c mice
[2] = system: macrophage cell line RAW 264.7; assay: FITC-labeled peptide binding to RAW 264.7 (confocal microscopy, FACS); format: cell-based, murine
Procedure: B11 peptide (50 μg) was conjugated to FITC (Biotium, Hayward, Calif.) as described by Sethi et al., [Sethi, K. K., et al. Cell Motil Cytoskeleton 52:231-241 (2002)]. For confocal microscopy, RAW 264.7 cells were grown in 8-well glass slides, Chamber Slide™ (Nunc), as described above. Cells were washed three times in cold PBS and incubated with the FITC-labeled mimotope for 5 min at 4° C. in serial dilutions of 1:2-1:100 in cold PBS. Slides were imaged immediately with a Zeiss 410 confocal laser scanning microscope.
(§1) RAW 264.7 cells were grown in a 250-ml flask, washed 3 times in cold PBS, and harvested, THP-1 cells were grown to 10^6/ml in 250-ml flask, centrifuged at 3000 rpm for 10 min, then washed 3 times in cold PBS. Cells were then incubated for 15 min at 37° C., with the FITC-labeled peptide diluted 1:50, then washed 3 times in cold PBS. The fluorescence levels of 10,000 cell counts were determined by FACS (Becton Dickinson, Franklin Lakes, N.J.) and analyzed by CELLQuest™ software. Assay of competitive binding between D-mannose and the FITC-labeled B11 peptide was performed according to Nguyen and Hildreth [Nguyen, D. G., and Hildreth, J. E. Eur J Immunol 33:483-493 (2003)].

[3] = system: THP-1 human monocyte cell line; assay: FITC-labeled peptide binding to THP-1 (FACS); format: cell-based
Procedure: as §1

[4] = system: allergic peritonitis; assay: OVA induced allergic peritonitis model; format: in vivo, BALB/c mice
Procedure: For induction of allergic peritonitis, female BALB/c mice, 5-6 weeks old, were sensitized twice on days 1 and 7 by subcutaneous (s.c.) injection of 0.4 ml of a 0.9% solution of NaCl containing 100 μg ovalbumin (OVA) adsorbed on 1.6 mg Al(OH)3 (all Sigma) the mice received a second dose of the same s.c. injection. On day 11 Peritonitis was induced by the intraperitoneal (i.p.) injection of 0.4 ml of a solution containing 5 μg/ml OVA diluted in saline [Temkin V. et al., Cytokine. 24:74-80. (2003)]. Negative control group were sensitized with saline. On day 12 mice were sacrificed (24 h after challenge (peritonitis induction)), and the peritoneal cavity was washed with 5 ml of Tyrode buffer (3 mmol/L potassium chloride, 10 mmol/L sodium hydrogen carbonate, 20 mmol/L sodium chloride, 0.36 mmol/L sodium phosphate, 0.1% glucose (all Sigma)) containing 0.1% gelatin (TG buffer). Peritoneal lavage fluid was centrifuged (5 minutes, 150 g), supernatants were saved for cytokine ELISA, and cell pellets were re-suspended in 2 ml of TG buffer for eosinophil quantification. Cells were stained for 30 min. with Phycoerytrin (PE)-labeled anti-CCR3Ab (0.625 μg/ml; R&D systems, Abingdon, UK) and eosinophils were defined as cells expressing the eotaxin receptor CCR3 [Grimaldi et al., J Leukoc Biol. 65:846-53. (1999)] by FACS analysis.
Mice treated with B11 peptide were treated i.p. with 200 μg/mouse 1 hour before sensitizations (Group-S), 1 hour before challenge (Group-C), and 1 hour before both sensitizations and challenge (Group-S+C).
(§2) Cytokine levels in mouse sera, cell supernatants, peritoneum lavage, and BALF were assessed by ELISA tests using commercial pairs of antibodies and recombinant cytokines for TNFα IFN-γ, IL-10 and IL-4 (Pharmingen International, Oxford, UK), and IL-12 (Biosource International, Camarillo, Calif.) according to the manufacturer's instructions. The ranges of the sensitivities of the ELISA for the murine cytokines were 15-200 pg/ml for TNF-α, IFN-γ, IL-10, and IL-4, and 15-500 pg/ml for IL-12.

[5] = system: CS40 anti-ManLAM monoclonal antibody; assay: ELISA competition vs. ManLAM for CS40 mAb; format: binding; conditions: 50 μg/ml of peptide
Procedure: ELISA competition assay was performed as described [Kaur, D., et al. Microbiology 148:3049-3057 (2002)]. Briefly, plates were coated with 0.5 μg/well ManLAM. Plates were blocked as described above. The CS40 mAb (diluted 1:2000) was mixed with various concentrations of either phage particles in TBS/1% BSA (0-1×10^18 particles/well) or peptides in PBS/1% BSA (0-200 μg/well). […] After washing (PBS), the ELISA procedure was performed as described above. Samples were all tested in triplicate.

[6] = system: LPS-induced symptoms; assay: LPS mice model; format: in vivo, BALB/c mice; conditions: B11 post-treatment, LPS 150 μg i.p.
[7] = system: serum antibodies of TB patients; assay: ELISA of human TB patients' sera on ManLAM or B11 coated plates; format: binding
Excerpt: Marchal (Pasteur Institute, Paris).

[8] = system: RAW 264.7 cell line; assay: Apoptosis of RAW 264.7 cells; format: cell-based, murine
[9] = system: primary spleen cells; assay: Proliferation of primary spleen cells; format: cell-based, BALB/c mice
[10] = system: CS40 mAb; assay: Direct peptide ELISA with CS40 mAb; format: binding
[11] = system: TNBS induced colitis; assay: TNBS induced colitis; format: in vivo, C57BL/6 mice
Procedure: In Specific pathogen-free male 4 month old C57BL/6 mice lightly anesthetized a 3.5F catheter was carefully inserted into the colon (4 cm proximal to the anus) administering 0.5 mg of the hapten reagent TNBS (Sigma) in 50% ethanol into the lumen of the colon at days 1 and 5. Animals were then kept in a vertical position for […] and returned to their cages. The mice were monitored for weight loss, behavior, appearance and diarrhea for 11 days. On day 11 mice were sacrificed and tested from macroscopic inflammation symptoms in the spleen, liver and colon [Neurath M. et al., J Exp Med. 182:1281-90. (1995)].
Mice treated with B11 peptide were treated i.p. with 200 μg/mouse on days 1 and 5.

[12] = system: LPS-induced symptoms; assay: LPS mice model; format: in vivo, BALB/c mice
Procedure: Female BALB/c mice, 6-7 weeks old were injected i.p. with 150 μg LPS (Sigma) per mouse.
Treatment with peptide was performed four days before LPS injection, (i.p. 200 μg peptide per mouse).

[13] = system: allergic asthma; assay: OVA induced allergic asthma model; format: in vivo, mice
Procedure: For the induction of allergic asthma, mice were sensitized with OVA (Grade V, Sigma) adsorbed to Al(OH)3 gel (Aldrich Chemical Company, Milwaukee, Wis.), using 8 mg OVA/2 ml gel/0.5 ml H2O, pH 7.0-7.5, given intraperitoneally on days 0 and 14. On days 24 and 27 mice were challenged (induction of allergic asthma) with OVA i.n. Negative control group were sensitized with saline. The sensitization and challenge protocol used is an adaptation of a reported procedure [Blyth D. et al., Am. J. Respir. Cell Mol. Biol., 14: 425-438. (1996)].
Twenty-four hours after the second challenge mice were sacrificed. Bronchoalveolar lavage (BAL) was performed with PBS. Eosinophils in Bronchoalveolar lavage fluid (BALF) were detected as described above. Cytokine ELISA was performed to determine cytokine levels in BALF.
Mice treated with B11 peptide were treated with 200 μg/mouse 2 days before sensitizations (Group-S i.p.), 2 days before challenges i.p. (Group-C i.p.), or 1 hour before challenge i.n. (Group-C i.n.) and 2 days both before sensitization and challenge (Group-S+C i.p.).
Lung were excised and examined histologically and photographed after staining with haematoxylin and eosin.
as §2

[14] = system: RAW 264.7 macrophage cell line; assay: Cytokine secretion in RAW 264.7 cells (cytokine ELISA); format: cell-based, murine
[15] = Groups S, C and S+C vs Group OVA, 200 μg i.p.

“CISLTEWSMWYRH [B11 peptide with an additional cysteine residue at the amino terminus]” was tested, and the “binding properties to ManLAM-binding antibodies” value ([1]; peptide with extra cysteine at amino terminus) was “maintained binding properties”.
For “FITC-conjugated B11 peptide: B11 peptide conjugated to FITC (ISLTEWSMWYRH; also: FITC conjugated)”, the “binding to macrophages in presence of D-mannose” value ([2]; FACS, 0.125 M D-mannose) was “inhibited by D-mannose”, the “binding to RAW 264.7” value ([2]; confocal microscopy and FACS) was “bound the macrophage cell line RAW 264.7” and the “binding to THP-1 in presence of D-mannose” value ([3]; 0.125 M D-mannose) was “inhibited by D-mannose”.
For “ISLTEWSMWYRH (random phage display library) [B11 peptide]”, the “eosonophil levels in peritoneum lavage” value ([4]; 200 μg one hour before challenge with OVA) was “as in the control group”, the “IFN-γ levels in peritoneum lavage” value [4, 15] was “significantly lower” and the “IL-10 levels in peritoneum lavage” value [4, 15] was “significantly lower”. The “IL-12 levels in peritoneum lavage” value [4, 15] was “significantly lower”, the “decrease in OD in competitive ELISA” value [5] was 100% and the LPS-induced effects [6] was “successfully reduced the LPS-induced effects”. The “anti-peptide antibody titers in BCG-vaccinated individuals” value ([7]; BCG-vaccinated vs TB patients) was “significantly lower than in TB patients”, the “titers of antigen-binding antibodies in sera of TB patients” value ([7]; TB patients vs healthy individuals) was “Significantly higher titers” and the inhibition of apoptosis ([8]; LPS-IFN-γ-activated RAW 264.7) was 30%. For the same substance, the induction of apoptosis ([8]; non-activated RAW 264.7) was “did not induce apoptosis”, the “IgG Abs in sera binding the coated antigen” value [1] was “significantly higher than those of the naive mice” and the inhibition of proliferation ([9]; spleen cells of Mtb infected mice) was 40-50%. For the same substance, the inhibition of proliferation ([9]; spleen cells of adjuvant stimulated mice) was 40-50%, the inhibition of proliferation ([9]; spleen cells of naive mice) was 40-50% and the “binding to CS40 mAb by direct ELISA” value [10] was “bound the CS40 mAb”. For the same substance, the “appearance, behavior, diarrhea, weight loss” value ([11]; all 11 days of experiment, all treated mice) was “normal appearance and behavior, and no diarrhea or weight loss”, the “colons normal in color and thickness” value ([11]; day 11) was 50% and the colons with lesions ([11]; day 11) was “None”. For the same substance, the “macroscopic inflammation symptoms of colon, spleen and liver” value ([11]; day 11) was “reduced”, the “treated mice with spleen and liver normal in size and colorization” value ([11]; day 11) was 75% and the colitis symptoms ([11]; i.p. 200 μg at days 1 and 5) was “reduced the colitis symptoms”. The “State after LPS-B11 pre-treatment” value ([12]; 1 hr post LPS injection) was “healthy”, the “State after LPS-B11 pre-treatment” value ([12]; 20 hr post LPS injection) was “Healthy” and the “State after LPS-B11 pre-treatment” value ([12]; 48 hr post LPS injection) was “Healthy”. The “LPS symptoms (appearance, behavior, curing rate)” value ([12]; pre-treated i.p. 200 μg 4 days before LPS) was “milder LPS symptoms”, the “binding to THP-1” value [3] was “Binds” and the “eosonophil levels in BALF” value ([13]; S i.p., C i.p., S+C i.p. and C i.n. vs OVA mice, 200 μg, FACS) was “significantly lower”. For the same substance, the “IL-12 in BALF” value ([13]; all mice treated i.p.) was “significantly lower”, the “IL-10 in BALF” value ([13]; i.n. before challenge, i.p. both before sensitization and challenge) was “significantly lower” and the “TNF-α in BALF” value ([13]; i.p. and i.n. before challenge) was “significantly lower”. For the same substance, the “IL-4 in BALF” value ([13]; i.p. and i.n. before challenge, i.p. both before sensitization and challenge) was “significantly lower”, the “inflammation in lung histology” value ([13]; treated i.p. before sensitizations or before challenges) was “no inflammation was observed” and the “inhibition of IL-12 secretion” value ([14]; LPS-IFN-γ-activated RAW 264.7) was 20%. For the same substance, the “production of IL-12” value ([14]; non-activated RAW 264.7) was “not induced” and the “production of IL-6” value ([14]; non-activated RAW 264.7, data not shown) was “not induced”.
